Source: publication PMC11359809, “Probing the molecular basis for signal transduction through the Zinc-Activated Channel (ZAC)” (Biochemical pharmacology, 2021)
Numbering of substitutions follows the chain as printed.

Tests used:
[1] = biological target: T1, WT m5-HT3AR (Mus musculus, UniProt P23979); assay: TEVC in Xenopus oocytes expressing WT m5-HT3AR; format: cell-based; settings: 5-HT 30 μM
T1 construct: expressed in transfected cells; host or cells: Xenopus oocytes injected with cRNA (pUNIV vector)
T1 sequence (P23979 24-489): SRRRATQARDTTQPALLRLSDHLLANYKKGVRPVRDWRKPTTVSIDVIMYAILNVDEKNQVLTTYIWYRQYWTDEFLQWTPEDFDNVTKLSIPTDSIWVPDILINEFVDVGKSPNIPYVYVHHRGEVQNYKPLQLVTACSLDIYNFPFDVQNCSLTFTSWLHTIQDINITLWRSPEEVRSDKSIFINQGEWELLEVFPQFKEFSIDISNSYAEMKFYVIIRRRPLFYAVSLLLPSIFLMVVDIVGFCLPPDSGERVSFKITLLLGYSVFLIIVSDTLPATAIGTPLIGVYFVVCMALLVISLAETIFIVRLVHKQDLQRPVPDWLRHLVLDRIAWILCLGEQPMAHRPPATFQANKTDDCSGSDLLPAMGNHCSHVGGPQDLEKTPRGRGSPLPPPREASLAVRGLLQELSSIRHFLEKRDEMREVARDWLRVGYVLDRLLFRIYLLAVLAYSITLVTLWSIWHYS
Description: (§1) The recordings were performed at room temperature.
(§2) Analysis of the data from the TEVC recordings were performed using Clampfit software version 10.5 (Molecular Devices, Crawley, UK) and GraphPad Prism version 7.0c (GraphPad Software, La Jolla, CA). Unless otherwise stated, the inward currents induced by agonists in oocytes were normalized to the maximal response elicited by a specific agonist (agonist Imax) on each oocyte. Concentration-response and concentration-inhibition curves were fitted in GraphPad Prism by nonlinear regression using the equation for sigmoidal dose-response with variable slope. Each data point represents the mean ± S.E.M. value of recordings performed on at least five oocytes in total from at least two different batches. For the data where statistical analysis was performed, a one-way ANOVA was used. The null hypothesis was rejected at P < 0.05, and the differences between the means were analyzed by Tukey’s multiple comparisons test.

[2] = biological target: T2, ZAC^H210A (Homo sapiens, UniProt Q401N2, A152T/H144A); assay: TEVC in oocytes, His120 Ala mutant; format: cell-based; settings: 10 mM Zn^2+
T2 construct: expressed in transfected cells; host or cells: Xenopus oocytes injected with cRNA (pUNIV vector)
T2 sequence (Q401N2 26-412 H144A/A152T): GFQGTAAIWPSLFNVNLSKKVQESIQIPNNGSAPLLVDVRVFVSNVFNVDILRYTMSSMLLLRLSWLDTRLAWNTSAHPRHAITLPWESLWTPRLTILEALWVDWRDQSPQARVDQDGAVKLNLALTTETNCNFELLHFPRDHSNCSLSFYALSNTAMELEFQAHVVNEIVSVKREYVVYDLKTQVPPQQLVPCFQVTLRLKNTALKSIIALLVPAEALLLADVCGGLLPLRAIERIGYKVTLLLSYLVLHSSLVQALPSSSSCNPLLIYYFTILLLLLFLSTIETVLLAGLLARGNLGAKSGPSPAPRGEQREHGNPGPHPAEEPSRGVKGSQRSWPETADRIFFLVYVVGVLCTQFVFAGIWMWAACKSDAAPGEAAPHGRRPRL
Description: as §1
as §2, with “For the data where statistical analysis was performed, a one-way ANOVA was used.” left out
(§3) The putative involvement of candidate residues in Clusters 1, 2, 3 and 4 in Zn^2+ binding to ZAC was investigated in by an elaborate alanine mutagenesis scanning. […] The determined IpH 4.0 value was used in part as a control and in part to enable the distinction of ZAC mutants non-responsive to Zn^2+ due to elimination of their ability to bind the metal ion from those where the mutation had eliminated cell surface expression and/or disrupted overall functionality of the receptor complex. […]

[3] = biological target: T3, ZAC^H82A (Homo sapiens, UniProt Q401N2, A152T/H106A); assay: TEVC in oocytes, ZAC H82A mutant; format: cell-based
T3 construct: expressed in transfected cells; host or cells: Xenopus oocytes injected with cRNA (pUNIV vector)
T3 sequence (Q401N2 26-412 H106A/A152T): as the sequence (Q401N2 26-412 H144A/A152T) above, with H81A, A119H counted along it
Description: as §1
as §2, with “For the data where statistical analysis was performed, a one-way ANOVA was used.” left out
as §3

[4] = biological target: T4, ZAC^H139A (Homo sapiens, UniProt Q401N2, A152T/H163A); assay: TEVC in oocytes, ZAC H139A mutant; format: cell-based
T4 construct: expressed in transfected cells; host or cells: Xenopus oocytes injected with cRNA (pUNIV vector)
T4 sequence (Q401N2 26-412 A152T/H163A): as the sequence (Q401N2 26-412 H144A/A152T) above, with A119H, H138A counted along it
Description: as §1
as §2, with “For the data where statistical analysis was performed, a one-way ANOVA was used.” left out
as §3

[5] = biological target: T5, ZAC^H144A (Homo sapiens, UniProt Q401N2, A152T/H168A); assay: TEVC in oocytes, ZAC H144A mutant; format: cell-based
T5 construct: expressed in transfected cells; host or cells: Xenopus oocytes injected with cRNA (pUNIV vector)
T5 sequence (Q401N2 26-412 A152T/H168A): as the sequence (Q401N2 26-412 H144A/A152T) above, with A119H, H143A counted along it
Description: as §1
as §2, with “For the data where statistical analysis was performed, a one-way ANOVA was used.” left out
as §3

[6] = biological target: T6, ZAC^E89A (Homo sapiens, UniProt Q401N2, A152T/E113A); assay: TEVC in oocytes, ZAC E89A mutant; format: cell-based; settings: agonist; n = 7
T6 construct: expressed in transfected cells; host or cells: Xenopus oocytes injected with cRNA (pUNIV vector)
T6 sequence (Q401N2 26-412 E113A/A152T): as the sequence (Q401N2 26-412 H144A/A152T) above, with E88A, A119H counted along it
Description: as §1
as §2, with “For the data where statistical analysis was performed, a one-way ANOVA was used.” left out
as §3

[7] = biological target: T7, ZAC^E160A/E162A/C195A (Homo sapiens, UniProt Q401N2, A152T/C219A/E184A/E186A); assay: TEVC in oocytes, Cluster 4 triple mutant; format: cell-based; settings: agonist; n = 6
T7 construct: expressed in transfected cells; host or cells: Xenopus oocytes injected with cRNA (pUNIV vector)
T7 sequence (Q401N2 26-412 A152T/E184A/E186A/C219A): as the sequence (Q401N2 26-412 H144A/A152T) above, with A119H, E159A, E161A, C194A counted along it
Description: as §1
as §2, with “For the data where statistical analysis was performed, a one-way ANOVA was used.” left out
as §3

[8] = biological target: T8, ZAC^L9′A (Homo sapiens, UniProt Q401N2, A152T/L270A); assay: TEVC in oocytes, ZAC L9′A mutant; format: cell-based; settings: agonist; n = 7
T8 construct: expressed in transfected cells; host or cells: Xenopus oocytes injected with cRNA (pUNIV vector)
T8 sequence (Q401N2 26-412 A152T/L270A): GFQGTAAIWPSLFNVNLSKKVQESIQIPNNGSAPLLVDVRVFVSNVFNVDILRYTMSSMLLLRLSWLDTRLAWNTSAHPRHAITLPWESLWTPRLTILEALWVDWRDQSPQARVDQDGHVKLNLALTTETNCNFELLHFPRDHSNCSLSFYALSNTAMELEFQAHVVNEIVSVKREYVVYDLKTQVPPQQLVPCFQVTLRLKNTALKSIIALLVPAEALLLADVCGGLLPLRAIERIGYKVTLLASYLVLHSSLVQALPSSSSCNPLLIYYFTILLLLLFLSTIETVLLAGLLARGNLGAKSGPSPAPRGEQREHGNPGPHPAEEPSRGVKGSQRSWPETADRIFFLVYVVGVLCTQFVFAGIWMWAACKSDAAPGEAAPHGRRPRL
Description: as §1, §2

[9] = biological target: T9, ZAC^L9′V (Homo sapiens, UniProt Q401N2, A152T/L270V); assay: TEVC in oocytes, ZAC L9′V mutant; format: cell-based; settings: agonist; n = 8
T9 construct: expressed in transfected cells; host or cells: Xenopus oocytes (cRNA injection, pUNIV vector)
T9 sequence (Q401N2 26-412 A152T/L270V): T8 sequence (Q401N2 26-412 A152T/L270A) with A245V
Description: as §1, §2

[10] = tested on: ZAC^L9′V, ZAC^L9′I and ZAC^L9′T; assay: TEVC in oocytes, L9′V, L9′I and L9′T mutants (collective statement); format: cell-based, human; settings: compared to WT ZAC; range over the three mutants
Description: as §1, §2

[11] = biological target: T10, ZAC^D105A (Homo sapiens, UniProt Q401N2, A152T/D129A); assay: TEVC in oocytes, ZAC D105A mutant; format: cell-based
T10 construct: expressed in transfected cells; host or cells: Xenopus oocytes (cRNA injection, pUNIV vector)
T10 sequence (Q401N2 26-412 D129A/A152T): as the sequence (Q401N2 26-412 H144A/A152T) above, with D104A, A119H counted along it
Description: as §1
as §2, with “For the data where statistical analysis was performed, a one-way ANOVA was used.” left out
as §3

[12] = biological target: T11, ZAC^D108A (Homo sapiens, UniProt Q401N2, A152T/D132A); assay: TEVC in oocytes, ZAC D108A mutant; format: cell-based
T11 construct: expressed in transfected cells; host or cells: Xenopus oocytes (cRNA injection, pUNIV vector)
T11 sequence (Q401N2 26-412 D132A/A152T): as the sequence (Q401N2 26-412 H144A/A152T) above, with D107A, A119H counted along it
Description: as §1
as §2, with “For the data where statistical analysis was performed, a one-way ANOVA was used.” left out
as §3

In the case of [Cl-].[Cl-].[Zn+2] [Zn^2+, ZnCl2], the “modulation of 5-HT (EC80)-evoked currents” value [1] is reported as “potentiated the 5-HT-induced response through WT m5-HT3AR at low-micromolar concentrations and inhibited it at higher concentrations”, the “I10 mM Zn2+” value [2] is reported as 5–30 nA and the “agonist properties compared to WT ZAC” value [3] is reported as “WT-like agonist properties”. For the same molecule, the “functional properties as agonist compared to WT ZAC” value [4] was “not altered significantly”, the “functional properties as agonist compared to WT ZAC” value [5] was “not altered significantly” and the EC50 [6] was 160 µM. The “pEC50 ± S.E.M.” value [6] was 3.79 ± 0.07, the EC50 [7] was 180 µM and the “pEC50 ± S.E.M.” value [7] was 3.75 ± 0.05. The EC50 [8] was 230 µM, the “nH ± S.E.M. (Hill slope)” value [8] was 1.2 ± 0.2 and the “pEC50 ± S.E.M.” value [8] was 3.64 ± 0.08. The EC50 [9] was 13 µM, the “nH ± S.E.M. (Hill slope)” value [9] was 0.7 ± 0.3 and the “pEC50 ± S.E.M.” value [9] was 4.88 ± 0.22. The “left-shift of Zn^2+ concentration-response relationship” value [10] was 8–30 fold, the “concentration-response relationship compared to WT ZAC” value [11] was “did not differ significantly” and the “concentration-response relationship compared to WT ZAC” value [12] was “did not differ significantly”.
